Test results as given in patent US5948437A, “Pharmaceutical compositions using thiazepine” (Zeneca Limited, priority 1997, dated 1999).
Counter-ions that a name gives are not always drawn.

Legend:
[1] = compound and its pharmaceutically acceptable salts; cited from earlier work
[2] = physchem; conditions: water

solubility thermodynamic [2] | SMILES | antidopaminergic activity [1]
 | OCCOCCN1CCN(C2=Nc3ccccc3Sc3ccccc32)CC1 [11-[4-[2-(2-hydroxyethoxy)ethyl]-1-piperazinyl]-dibenzo[b,f][1,4]thiazepine] | exhibit useful antidopaminergic activity
3290 µg/mL | OCCOCCN1CCN(C2=Nc3ccccc3Sc3ccccc32)CC1 [hemifumarate salt, 11-[4-[2-(2-hydroxyethoxy)ethyl]-1-piperazinyl]dibenzo[b,f][1,4]-thiazepine] | 
